Data: patent US10548895B2, “Ligands that target Plasmodium sporozoite binding sites on CD81 and therapeutic methods using them” (American University In Cairo (AUC), priority 2014, dated 2020)
Entries after “also recorded” stand apart in the source; their conditions may differ. Where two headings read alike, the source gives them in different places.

Tests used:
[1] = molecular target: T1, native CD81 on Raji cells (Homo sapiens, UniProt P60033); assay: Antibody neutralizing assay: inhibition of JS-81 anti-CD81 antibody binding on Raji cells (FACS); type: cell-based; settings: for inhibition at 50 µM / inhibition at 100 µM / inhibition at 400 µM: read-out: Inhibition of JS-81 Binding (%)
T1 construct: endogenous in cells; host or cells: Raji cells (human B cell line)
T1 sequence (P60033 1-236): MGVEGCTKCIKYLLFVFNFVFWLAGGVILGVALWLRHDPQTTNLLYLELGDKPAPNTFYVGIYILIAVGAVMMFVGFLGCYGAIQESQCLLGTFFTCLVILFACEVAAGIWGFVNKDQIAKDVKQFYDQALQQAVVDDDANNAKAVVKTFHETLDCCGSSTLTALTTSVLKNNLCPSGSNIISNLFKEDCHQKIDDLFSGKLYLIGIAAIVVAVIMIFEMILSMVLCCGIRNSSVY
Method: For antibody neutralization assay Raji cells were used, a human B cell line that expressed high amounts of CD81 on the surface (data not shown), Cells were grown in RPMI medium (10% FCS, 1% penicillin/streptomycin, 1% L-glutamine, 1% non-essential amino acids, 1% sodium pyruvate, pH 7.4, at 37° C. with 5% CO2). 2×10^5 cells were incubated with or without different concentrations (50 μM, 100 μM, 400 μM and 1 mM) of indicated inhibitor for 20 min at room temperature, subsequently 1 ul (16 ng/μl) of FITC-labeled anti CD81 antibody (BD Pharmingen, 551108) was added to the cells and incubated for 20 min (antibody titration was performed to obtain a working dilution range, data not shown). Cells were washed and analyzed by FACS (BD FACSCalibur, software: Cell Quest Pro). Mean Fluorescence Intensity MFI was calculated using Flowjo software (TreesStar, www.flowjo.com).

CD81-LEL = molecular target: T2, CD81-LEL (Homo sapiens, UniProt P60033); assay: Surface plasmon resonance binding of ligands to immobilized CD81-LEL; settings: for Binding (change in response units) / Dissociation 1 (change in response units) / Dissociation 2 (change in response units) / binding-dissociation behavior (in words): SPR; for Binding (change in response units): 3 min association; for Dissociation 1 (change in response units) / Dissociation 2 (change in response units): dissociation interval
T2 construct: A recombinant form of the CD81-LEL protein with a GST tag; gift of Dr. Shoshana Levy, Stanford University
T2 sequence (P60033 113-201 limits assumed): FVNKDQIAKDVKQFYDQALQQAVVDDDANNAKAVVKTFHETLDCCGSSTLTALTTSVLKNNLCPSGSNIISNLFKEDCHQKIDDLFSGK
Method: SPR analysis was performed using a Biacore T200 workstation (GE Healthcare, NJ, USA). A recombinant form of the CD81-LEL protein with a GST tag (generously provided by Dr. Shoshana Levy, Stanford University) was used to confirm, using an established experimental technique, the binding of several ligands to the protein. Briefly, 10 μM CD81-LEL-GST diluted into 10 mM Na-Acetate buffer pH 4.5 was immobilized for 15 min at a flow speed of 5 μl/min onto a CM5 sensor chip using amine-coupling (EDC-NHS), Approximately 20,000 RU of protein were immobilized on the chip. The ligands were prepared as 600 μM solutions in PBS-0.05% Tween-80 (the running buffer) and they were introduced to the protein using a pre-programmed 3 minute association and 1 minute dissociation interval.
SPR analysis was performed using a Biacore T100 workstation (GE Healthcare, NJ, USA). […] Approximately 20,000 RU of protein were immobilized on the chip. The ligands were prepared as 200 uM solutions in PBS-1% DMSO (the running buffer) and they were introduced to the protein using a pre-programmed 3 min association and 1 min dissociation interval.

Plasmodium berghei = assay: Sporozoite infection assay, P. berghei in Hepa1-6 cells; type: cell-based; settings: for Percent Infection: Hepa1-6 Cells, Plasmodium berghei; for effect on infection (in words): Hepa1-6 cells
Plasmodium falciparum = assay: Sporozoite invasion assay, P. falciparum in HepG2-CD81 cells; type: cell-based; settings: for Percent Infection: HepG2-CD81, Plasmodium falciparum, 400 uM compound
Method: (§1) Anopheles stephensi mosquitoes were fed on mice infected with Plasmodium yoelii 17XNL parasites. On day 14 post bloodmeal, salivary glands were harvested, homogenized, sporozoite number was determined using a hemocytometer and the indicated number of sporozoites was added to cell monolayers, Plasmodium falciparum sporozoites were generated by membrane feeding An. stephensi mosquitoes using gametocyte cultures generated in vitro.
(§2) HepG2-CD81 (14) cells were maintained in DMEM supplemented with 10% fetal calf serum and 1 mM glutamine (DMEM/FCS), mAb 2E6 was used for development assays and is directed against Plasmodium Hsp 70 (15) and mAb 2A10 is directed against the repeat region of P. falciparum CSP and was used for invasion assays.
(§3) 5×10^5 HepG2-CD81 cells were plated on collagen coated Lab-Tek wells and allowed to adhere overnight. The following day, cells were preincubated with 400 uM of compound for 30 minutes at 37° C. Controls were pre-incubated with DMSO at the same concentration in which it was found in the compound solutions. 10^5 sporozoites were added to each well and in the case of P. falciparum, incubated for 1.5 hours and scored for invasion whereas in the case of P. yoelii, incubated for 44 hours and scored for exoerythrocytic stages.

Plasmodium yoelii [2] = assay: Sporozoite infection assay, P. yoelii in Hepa1-6 cells; type: cell-based; settings: for Percent Infection: Hepa1-6 Cells, Plasmodium yoelii; for effect on infection (in words): Hepa1-6 cells
Plasmodium yoelii [3] = assay: Sporozoite development assay, P. yoelii in HepG2-CD81 cells; type: cell-based; settings: for Percent Infection: HepG2-CD81, Plasmodium yoelii, 400 uM compound
Method: as §1, §2, §3

Row | SMILES | Inhibition of JS-81 Binding (%) ([1]; 50 μM ligand, Raji cells) | Inhibition of JS-81 Binding (%) ([1]; 100 μM ligand, Raji cells) | Inhibition of JS-81 Binding (%) ([1]; 400 μM ligand, Raji cells) | Binding (change in response units) (CD81-LEL) [response units] | Dissociation 1 (change in response units) (CD81-LEL) [response units] | Dissociation 2 (change in response units) (CD81-LEL) [response units] | other results
1 | NS(=O)(=O)c1ccc(N=Nc2c(O)c(C(=O)O)cc3ccccc23)cc1 [Ligand 134137] | 0 | 6 | 26 | – | – | – | –
2 | CC(C)(C)c1ccc(NS(=O)(=O)c2ccc(N)cc2)cc1 [Ligand 7436] | 0 | 12 | 11 | – | – | – | –
3 | O=C(O)c1cc(O)ccc1N=Nc1ccccc1 [Ligand 106863] | 0 | 0 | 19 | – | – | – | –
4 | O=C(O)Cn1ccc2ccccc21 [Ligand 75866, 2-indol-1-ylacetate] | – | – | – | 14.3 | 18.9 | 11.3 | Percent Infection (Plasmodium berghei): 135%; effect on infection (in words) (Plasmodium berghei; P. berghei): didn't inhibit; Percent Infection (Plasmodium falciparum): 84.2%; Percent Infection (Plasmodium yoelii [2]): 122%; effect on infection (in words) (Plasmodium yoelii [2]; P. yoelii): didn't inhibit; Percent Infection (Plasmodium yoelii [3]): 42.6%; effect on infection (in words) (Plasmodium yoelii [3]; P. yoelii, HepG2-CD81): inhibit; also recorded: inhibitory effect
5 | O=C(O)/C=C/C(=O)Nc1cccc2cccnc12 [Ligand 144958] | 0 | 54 | 12 | – | – | – | –
6 | c1cncc(C2CCCC[NH2+]2)c1 (stereo in doubt) [Ligand 87504, 3-[(2S)-piperidin-2-yl]pyridine] | – | – | – | 72 | 57.9 | 42.6 | binding-dissociation behavior (in words) (CD81-LEL): best binding and dissociation; also recorded: most desirable binding-dissociation behavior; also recorded: best binding-dissociation behavior; inhibition at 50 µM ([1]; Raji): 0%; inhibition at 100 µM ([1]; Raji): 6%; inhibition at 400 µM ([1]; Raji): 20%
7 | O=C(Cn1ccc(=O)[nH]c1=O)Nc1ccc(C(=O)O)c(O)c1 [Ligand 93033, 4-[[2-(2,4-dioxopyrimidin-1-yl)acetyl]amino]-2-hydroxybenzoate] | – | – | – | 6.7 | 16.8 | 7.9 | binding-dissociation behavior (in words) (CD81-LEL): comparable binding and dissociation; inhibition at 50 µM ([1]; 50 μM ligand, Raji cells): 0%; inhibition at 100 µM ([1]; 100 μM ligand, Raji cells): 0%; inhibition at 400 µM ([1]; 400 μM ligand, Raji cells): 16%
8 | CC(C)=CCC1=C(OCC(=O)O)C(=O)c2ccccc2C1=O [Ligand 98026, 2-[3-(3-methylbut-2-enyl)-1,4-dioxonaphthalen-2-yl]oxyacetate] | – | – | – | 36.6 | 35.9 | 28.1 | inhibition at 50 µM ([1]; 50 μM ligand, Raji cells): 0%; inhibition at 100 µM ([1]; 100 μM ligand, Raji cells): 0%; inhibition at 400 µM ([1]; 400 μM ligand, Raji cells): 21%
9 | NC(=O)NC(=O)c1nccnc1C(=O)O [Ligand 117922] | 0 | 12 | 26 | – | – | – | –
10 | O=C(O)c1cc2cc(OCc3ccccc3)ccc2[nH]1 [Ligand 30930, 5-phenylmethoxy-1H-indole-2-carboxylic acid] | – | – | – | 38.6 | 26.8 | 21.8 | inhibition at 50 µM ([1]; 50 μM ligand, Raji cells): 0%; inhibition at 100 µM ([1]; 100 μM ligand, Raji cells): 0%; inhibition at 400 µM ([1]; 400 μM ligand, Raji cells): 14%
11 | CC(=NO)C1CC(CC(=O)O)C1(C)C (centres unmarked) [Ligand 127947] | 0 | 0 | 24 | – | – | – | –
12 | CNC1(C(N)=O)CCNCC1 [Ligand 75846] | 0 | 0 | 52 | – | – | – | –
13 | CCC(C)(C)c1ccc(Oc2cccc(C(=O)O)c2)cc1 [Ligand 7962] | – | – | – | 43.6 | 14.7 | 10.1 | Percent Infection (Plasmodium berghei): 0%; percentage of infection inhibition (Plasmodium berghei; P. berghei, Hepa1-6): 100%; effect on infection (in words) (Plasmodium berghei; P. berghei): Inhibition; Percent Infection (Plasmodium falciparum): 0%; effect on infection (in words) (Plasmodium falciparum; P. falciparum): inhibit the infection; percentage of infection inhibition (Plasmodium falciparum; P. falciparum, HepG2-CD81): 100%; Percent Infection (Plasmodium yoelii [2]): 0%; percentage of infection inhibition (Plasmodium yoelii [2]; P. yoelii, Hepa1-6): 100%; Percent Infection (Plasmodium yoelii [3]): 0%; effect on infection (in words) (Plasmodium yoelii [3]; P. yoelii, HepG2-CD81): inhibit; also recorded: strongest inhibitory effect; percentage of infection inhibition (Plasmodium yoelii [3]; P. yoelii, HepG2-CD81): 100%; inhibition at 50 µM ([1]; 50 μM ligand, Raji cells): 0%; inhibition at 100 µM ([1]; 100 μM ligand, Raji cells): 0%; inhibition at 400 µM ([1]; 400 μM ligand, Raji cells): 19%
14 | CSc1ccc2c(c1)C(N1CCN(C)CC1)Cc1ccccc1S2 (centres unmarked) [Ligand 281816] | – | – | – | – | – | – | binding to CD81 by SPR (in words) (CD81-LEL): bind to CD81-LEL; inhibition of anti-CD81 binding (in words) ([1]; 100 uM and 400 uM): inhibit anti-CD81 binding to CD81-LEL in a dose dependent manner
15 | NC(N)=N/N=C\c1c(Cl)cccc1Cl [Ligand 68982] | 0 | 13 | 15 | – | – | – | –
16 | O=C(O)c1ccc(N2CCCCC2)cc1O [Ligand 23895] | 0 | 0 | 17 | – | – | – | –
17 | Cc1cc(C)c(N)c(C(=O)O)c1 [Ligand 90444, 2-amino-3,5-dimethylbenzoate] | – | – | – | −1.7 | 13.1 | 5.6 | Percent Infection (Plasmodium berghei): 95.6%; effect on infection (in words) (Plasmodium berghei; P. berghei): didn't inhibit; Percent Infection (Plasmodium falciparum): 98.7%; Percent Infection (Plasmodium yoelii [2]): 222%; effect on infection (in words) (Plasmodium yoelii [2]; P. yoelii): didn't inhibit; Percent Infection (Plasmodium yoelii [3]): 44.3%; effect on infection (in words) (Plasmodium yoelii [3]; P. yoelii, HepG2-CD81): inhibit; also recorded: inhibitory effect; inhibition at 50 µM ([1]; 50 μM ligand, Raji cells): 0%; inhibition at 100 µM ([1]; 100 μM ligand, Raji cells): 0%; inhibition at 400 µM ([1]; 400 μM ligand, Raji cells): 24%
18 | Cc1ccc(-c2cc(C(=O)O)c3ccccc3n2)c(C)c1 [Ligand 25678] | 0 | 4 | 19 | – | – | – | –
